Experimental data as given in US12121521B2, “Uses of salt-inducible kinase (SIK) inhibitors for treating osteoporosis” (The General Hospital Corporation, priority 2016, dated 2024).

Tested on: oophorectomized (OVX) female C57B/6 mice
Test: OVX mice: micro-CT, histomorphometry, bone turnover markers
Assay type: in vivo, mouse
Protocol: Assessment of bone morphology and microarchitecture was performed with high-resolution micro-computed tomography (pCT40; Scanco Medical, Brüttisellen, Switzerland). In brief, the distal femoral metaphysis and mid-diaphysis were scanned using 70 kVp peak x-ray tube potential, 113 mAs x-ray tube current, 200 ms integration time, and 10-μm isotropic voxel size. Cancellous bone was assessed in the distal metaphysis and cortical bone was assessed in the mid-diaphysis. The femoral metaphysis region began 1700 μm proximal to the distal growth plate and extended 1500 μm distally. Cancellous bone was separated from cortical bone with a semiautomated contouring program. For the cancellous bone region, bone volume fraction (BV/TV, %), trabecular thickness (Tb.Th, mm), trabecular separation (Tb.Sp, mm), trabecular number (Tb.N, 1/mm), connectivity density (Conn.D or ConnD, 1/mm^3), and structure model index (SMI) were assessed. Transverse CT slices were also acquired in a 500 μm long region at the femoral mid-diaphysis to assess total cross-sectional area, cortical bone area, and medullary area (Tt.Ar, Ct.Ar, and Ma.Ar, respectively, all mm^2); bone area fraction (Ct.Ar/Tt.Ar, %), cortical thickness (Ct.Th, mm), porosity (Ct.Po, %) and minimum (Imin, mm^4), maximum (Imax, mm^4), and polar (J, mm^4) moments of inertia. Bone was segmented from soft tissue using the same threshold, 300 mg HA/cm^3 for trabecular and 733 mg HA/cm^3 for cortical bone. Scanning and analyses adhered to the guidelines for the use of micro-CT for the assessment of bone architecture in rodents (74). For the primary spongiosa region (where intermittent PTH treatment has its predominant effect) analyzed in FIG. 13A, coronal CT slices were evaluated in a 500 μm (50 slices) region located centrally in the bone. […] The primary spongiosa bone region was identified by semi-manually contouring the region of interest. Images were thresholded using an adaptive-iterative algorithm. The average adaptive-iterative threshold of control mice (WT, vehicle treated) for the region of interest (299 mgHA/cm^3) were then used to segment bone from soft tissue for all distal femur images. Micro-CT analysis was done based on sample numbers in a completely blinded manner.
Right tibia from 8-week-old mice were subjected to bone histomorphometric analysis. […] The structural, dynamic and cellular parameters were calculated and expressed according to the standardized nomenclature (75).
48 female C57B/6 mice were subjected to sham surgery (SHAM; n=24) or oophorectomy (n=24) at 12 weeks of age. […] The mice were assessed by micro-CT (μ-CT) of the femur and L5 vertebrae, and static/dynamic histomorphometry of the tibia.

## COc1ccc(N2C(=O)N(c3c(C)cccc3Cl)Cc3cnc(Nc4ccc(C5CCN(C)CC5)cc4OC)nc32)nc1 [YKL-05-099]
FIG. 32A
  osteoblast numbers: increased osteoblast numbers
FIG. 32C
  osteoclast activity / eroded surfaces: reduced eroded surfaces
FIG. 33C
  bone formation rate: increased
Distal femur and L5 vertebrae
  trabecular bone mass: increased trabecular bone mass at both skeletal sites
